Experimental data as given in patent publication US8138220B2, “[2-(6-fluoro-1H-indol-3-ylsulfanyl)benzyl]methyl amine for the treatment of affective disorders” (H. Lundbeck A/S, priority 2006, dated 2012).

Key:
[1] = target: rat 5-HT2A receptor (Rattus norvegicus, UniProt P14842); test: Ki for rat versus human 5-HT2A receptor; format: binding
[2] = target: T1, human alpha1A-7 receptors (Homo sapiens, UniProt P35348); test: α1A functional assay, adrenaline evoked Ca2+ release in CHO cells (FLIPR); format: cell-based; conditions: CHO cells expressing human alpha1A-7 receptors
T1 sequence (P35348 1-423 limits assumed): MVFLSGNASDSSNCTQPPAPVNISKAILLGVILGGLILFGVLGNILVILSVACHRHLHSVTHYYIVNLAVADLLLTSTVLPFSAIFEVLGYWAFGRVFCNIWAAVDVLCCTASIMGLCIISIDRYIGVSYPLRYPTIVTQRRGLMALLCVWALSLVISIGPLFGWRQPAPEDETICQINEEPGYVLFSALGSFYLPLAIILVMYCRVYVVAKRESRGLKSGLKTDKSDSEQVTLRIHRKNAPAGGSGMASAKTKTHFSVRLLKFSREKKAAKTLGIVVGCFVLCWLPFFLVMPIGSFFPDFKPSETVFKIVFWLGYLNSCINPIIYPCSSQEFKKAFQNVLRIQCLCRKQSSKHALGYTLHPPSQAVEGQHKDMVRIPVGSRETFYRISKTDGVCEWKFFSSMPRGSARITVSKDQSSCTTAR
Experimental: All cells were cultured in DMEM medium supplemented with 10% BCS, 4 mM L-glutamine (or 2 mM in the case of COS-7), and 100 units/ml penicillin plus 100 μg/ml streptomycin, at 37° C., in 5% CO2.
Twenty-four hours prior to assays, CHO cells expressing the human alpha1A-7 receptors were seeded into 384-well black wall microtiter plates coated with poly-D-lysine. Culture medium was aspirated and cells were dye-loaded with 1.5 μM Fluo-4 in assay buffer composed of Hank's Balanced Salt Solution (138 mM NaCl, 5 mM KCl, 1.3 mM CaCl2, 0.5 mM MgCl2, 0.4 mM MgSO4, 0.3 mM KH2PO4, 0.3 mM Na2HPO4, 5.6 mM glucose) plus 20 mM HEPES pH 7.4, 0.05% BSA and 2.5 mM probenicid (50 μl/well) for 1 hour in 5% CO2 at 37° C. After excess dye was discarded, cells were washed in assay buffer and layered with a final volume equal to 45 μl/well (or 30 ul/well for antagonist assay). […] Laser excitation energy was adjusted so that basal fluorescence readings were approximately 8,000 relative fluorescent units (RFU). Cells were then stimulated at room temperature with agonists diluted in assay buffer (15 μl), and RFU were measured at 1.5 second intervals over a period of 2.5 min. Maximum change in fluorescence was calculated for each well. Concentration-response curves derived from the maximum change in fluorescence were analyzed by nonlinear regression (Hill equation). […]

Chain of rat 5-HT2A receptor (P14842 whole entry): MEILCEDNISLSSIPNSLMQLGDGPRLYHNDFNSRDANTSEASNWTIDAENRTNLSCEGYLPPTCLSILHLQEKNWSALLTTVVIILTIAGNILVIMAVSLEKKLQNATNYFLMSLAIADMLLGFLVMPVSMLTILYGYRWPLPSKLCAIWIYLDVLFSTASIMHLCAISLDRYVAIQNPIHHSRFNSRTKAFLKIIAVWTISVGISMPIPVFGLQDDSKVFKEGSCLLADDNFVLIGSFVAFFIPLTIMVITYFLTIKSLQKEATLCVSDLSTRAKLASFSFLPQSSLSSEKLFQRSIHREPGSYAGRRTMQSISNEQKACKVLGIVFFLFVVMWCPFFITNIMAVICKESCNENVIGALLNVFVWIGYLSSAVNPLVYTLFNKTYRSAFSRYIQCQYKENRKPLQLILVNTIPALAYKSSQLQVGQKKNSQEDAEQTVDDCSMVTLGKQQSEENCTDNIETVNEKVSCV

Q: How did the “Ki rat 5-HT2A receptor higher than human 5-HT2A receptor” value [1] turn out when `CNCc1ccccc1Sc1c[nH]c2cc(F)ccc12` [compounds of the present invention, [2-(6-fluoro-1H-indol-3-ylsulfanyl)benzyl]methyl amine] was run?
A: ~40 fold

Q: What about the Kb [2] of the same compound?
A: 0.064 µM
